Values after ≈ are worked out from the molar mass of the structure shown. Like-named read-outs stand apart in the source and are kept apart here.
How the values were obtained:
Format in all cases: physicochemical
[1] = Solubility studies in alkaline buffers; details: for solubility at 48 h: 25 °C, thermodynamic from solid
Protocol: Solubility studies were performed at 25° C. in various buffers. More specifically:
An excess quantity of mefenamic acid powder was added to a 25 ml flask containing 15 ml of the appropriate aqueous medium. The flasks were placed in a thermostated water bath at 25° C. under constant shaking rate of 100 rpm for 48 h. The filtrated samples of mefenamic acid were monitored at 285 nm. Calibration curves were performed for every buffer, prior to measurements.

[2] = Final pH of drug-buffer solution solubilized/dispersed in milk
Protocol: The appropriate buffer was added in milk gradually under magnetic stirring and the increase of the milk pH was measured. […] Subsequently, experiments were performed in order to evaluate if an active ingredient initially dissolved in buffer, when solubilized/dispersed in milk, is suitable for oral administration. […] The buffer volume was increased by 0.5 ml each time and the pH values after each addition were measured.

[3] = Stability studies of NSAID alkaline buffer solutions; details: for total amount of drug compared to the initial value: alkaline buffer solution pH 12
Protocol: The drugs were dissolved in the following buffers: 0.2 M NaH2PO4—NaOH pH 12 and 0.05 M glycine-NaOH pH 12. A weighted amount of drug, corresponding to its therapeutic dose, was dissolved in the appropriate volume of alkaline buffer. […] Also, the pH values of the aqueous alkaline NSAIDs solutions were measured before storage and at the predetermined time points.

Compound: CN1C(C(=O)Nc2ccccn2)=C(O)c2sccc2S1(=O)=O [Tenoxicam]
- solubility at 48 h ([1]; phosphate buffer, aqueous buffer, buffer 0.1M NaH2PO4/NaOH at nominal pH=12, read-out: solubility): 14.3 mg/mL (≈ 42.5 mM)

Compound: Cc1cnc(NC(=O)C2=C(O)c3ccccc3S(=O)(=O)N2C)s1 [Meloxicam]
- solubility at 48 h ([1]; aqueous buffer, buffer glycine/NaOH at nominal pH=12, read-out: solubility): 15.4 mg/mL (≈ 43.8 mM)

Compound: Cc1cccc(Nc2ccccc2C(=O)O)c1C [Mefenamic acid]
- solubility (FIG. 1) ([1]; 25° C., nominal pH range of 11-12, 0.2M NaH2PO4—NaOH buffer): greatly enhanced
- Final pH ([2]; dose 50 mg, 10 mg/mL, 5 mL NaH2PO4/NaOH 0.2M (nominal pH=12) in 150 ml […] fat long duration milk): 6.81
- Final pH ([2]; dose 100 mg, 10 mg/mL, 10 mL NaH2PO4/NaOH 0.2M (nominal pH=12) in 150 ml […] fat long duration milk): 7.01
- Final pH ([2]; dose 500 mg, 25 mg/mL, 20 mL NaH2PO4/NaOH 0.2M (nominal pH=12) in 150 ml […] fat long duration milk): 7.73
- Final pH ([2]; dose 500 mg, 40 mg/mL, 12.5 mL NaH2PO4/NaOH 0.2M (nominal pH=12) in 150 ml […] fat long duration milk): 7.35

Compound: Cc1c(Cl)cccc1Nc1ccccc1C(=O)O [Tolfenamic acid]
- solubility at 48 h ([1]; pH 12, aqueous buffer): 35.1 mg/mL (≈ 134 mM)
- Final pH ([2]; dose 100 mg, 10 mg/mL, 10 mL NaH2PO4/NaOH 0.2M (nominal pH=12) in 150 ml […] fat long duration milk (tolfenamic acid)): 7.42
- Final pH ([2]; dose 100 mg, 20 mg/mL, 5 mL NaH2PO4/NaOH 0.1M (nominal pH=12) in 150 ml […] fat long duration milk): 6.75
- Final pH ([2]; dose 100 mg, 20 mg/mL, 5 mL NaH2PO4/NaOH 0.2M (nominal pH=12) in 150 ml […] fat long duration milk): 7.03
- Final pH ([2]; dose 200 mg, 20 mg/mL, 10 mL NaH2PO4/NaOH 0.2M (nominal pH=12) in 150 ml […] fat long duration milk): 7.34
- Final pH ([2]; dose 300 mg, 25 mg/mL, 12 mL NaH2PO4/NaOH 0.2M (nominal pH=12) in 150 ml […] fat long duration milk): 7.40

Compound: CS(=O)(=O)Nc1ccc([N+](=O)[O-])cc1Oc1ccccc1 [Nimesulide]
- total amount of drug compared to the initial value ([3]; accelerated stability studies, 30° C.): 99.7-100.2%
- total amount of drug compared to the initial value ([3]; accelerated stability studies, 40° C.): 101-118%
- change of pH (compared to the initial value) ([3]; both long term and accelerated studies, all three temperatures): 98.8-100.2%
- % change of drug amount ([3]; long term and accelerated stability studies): within acceptable ranges
- total amount of drug compared to the initial value ([3]; long term studies at 25° C. (3 and 6 months)): 96.5-107%

Source: patent US8435982B2, “Pharmaceutical formulation containing lipophilic drugs and milk as a solubilizing/dispensing agent and method for the preparation thereof” (Pharmathen S.A., priority 2007, dated 2013)
